Test results: article PMC5862592, “CDK8/19 inhibition induces premature G1/S transition and ATR-dependent cell death in prostate cancer cells” (Oncotarget, 2018)
Read-outs that look alike come from different tables or passages of the source.

What was measured:
Test in all cases: biochemical
Design in all cases: KINOMEscan active site-directed competition binding assay (DiscoveRx), 456 kinases, per cent of control at 300 nM
Details in all cases: read-out: Percent of Control (%)
[1] = target: T1, ABL1-nonphosphorylated (Homo sapiens, UniProt P00519)
T1 construct: nonphosphorylated
Outline: (§1)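 At 300 nmol/L, compounds were assessed for kinase binding in an active site-directed competition format covering 456 kinases.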

[2] = target: BMPR1B (Homo sapiens, UniProt O00238)
Outline: as §1

[3] = target: T2, CDK11 (Homo sapiens, UniProt Q9BWU1)
T2 construct: gene CDK19
T2 sequence (Q9BWU1 whole entry): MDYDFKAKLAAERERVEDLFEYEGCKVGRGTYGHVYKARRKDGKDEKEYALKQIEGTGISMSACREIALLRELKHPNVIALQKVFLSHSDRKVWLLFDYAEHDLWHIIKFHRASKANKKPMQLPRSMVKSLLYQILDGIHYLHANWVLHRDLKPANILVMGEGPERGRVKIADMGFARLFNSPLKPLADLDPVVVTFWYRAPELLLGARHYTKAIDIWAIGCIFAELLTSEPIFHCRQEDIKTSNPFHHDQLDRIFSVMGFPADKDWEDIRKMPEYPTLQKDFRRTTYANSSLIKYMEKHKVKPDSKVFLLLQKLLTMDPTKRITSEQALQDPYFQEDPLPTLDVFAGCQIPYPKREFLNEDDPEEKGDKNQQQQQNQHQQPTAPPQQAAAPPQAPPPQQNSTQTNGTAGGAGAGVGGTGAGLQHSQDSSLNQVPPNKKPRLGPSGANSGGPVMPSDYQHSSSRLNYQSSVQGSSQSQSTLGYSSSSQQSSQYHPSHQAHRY
Outline: as §1

[4] = target: CDK2 (Homo sapiens, UniProt P24941)
Outline: as §1

[5] = target: CSK (Homo sapiens, UniProt P41240)
Outline: as §1

[6] = target: T3, DCAMKL1 (Homo sapiens, UniProt O15075)
T3 construct: gene DCLK1
Outline: as §1

[7] = target: T4, DMPK2 (Homo sapiens, UniProt Q6DT37)
T4 construct: gene CDC42BPG
Outline: as §1

[8] = target: DYRK1A (Homo sapiens, UniProt Q13627)
Outline: as §1

[9] = target: EPHA7 (Homo sapiens, UniProt Q15375)
Outline: as §1

[10] = target: EPHB1 (Homo sapiens, UniProt P54762)
Outline: as §1

[11] = target: FLT4 (Homo sapiens, UniProt P35916)
Outline: as §1

[12] = target: IGF1R (Homo sapiens, UniProt P08069)
Chain of IGF1R (P08069 whole entry): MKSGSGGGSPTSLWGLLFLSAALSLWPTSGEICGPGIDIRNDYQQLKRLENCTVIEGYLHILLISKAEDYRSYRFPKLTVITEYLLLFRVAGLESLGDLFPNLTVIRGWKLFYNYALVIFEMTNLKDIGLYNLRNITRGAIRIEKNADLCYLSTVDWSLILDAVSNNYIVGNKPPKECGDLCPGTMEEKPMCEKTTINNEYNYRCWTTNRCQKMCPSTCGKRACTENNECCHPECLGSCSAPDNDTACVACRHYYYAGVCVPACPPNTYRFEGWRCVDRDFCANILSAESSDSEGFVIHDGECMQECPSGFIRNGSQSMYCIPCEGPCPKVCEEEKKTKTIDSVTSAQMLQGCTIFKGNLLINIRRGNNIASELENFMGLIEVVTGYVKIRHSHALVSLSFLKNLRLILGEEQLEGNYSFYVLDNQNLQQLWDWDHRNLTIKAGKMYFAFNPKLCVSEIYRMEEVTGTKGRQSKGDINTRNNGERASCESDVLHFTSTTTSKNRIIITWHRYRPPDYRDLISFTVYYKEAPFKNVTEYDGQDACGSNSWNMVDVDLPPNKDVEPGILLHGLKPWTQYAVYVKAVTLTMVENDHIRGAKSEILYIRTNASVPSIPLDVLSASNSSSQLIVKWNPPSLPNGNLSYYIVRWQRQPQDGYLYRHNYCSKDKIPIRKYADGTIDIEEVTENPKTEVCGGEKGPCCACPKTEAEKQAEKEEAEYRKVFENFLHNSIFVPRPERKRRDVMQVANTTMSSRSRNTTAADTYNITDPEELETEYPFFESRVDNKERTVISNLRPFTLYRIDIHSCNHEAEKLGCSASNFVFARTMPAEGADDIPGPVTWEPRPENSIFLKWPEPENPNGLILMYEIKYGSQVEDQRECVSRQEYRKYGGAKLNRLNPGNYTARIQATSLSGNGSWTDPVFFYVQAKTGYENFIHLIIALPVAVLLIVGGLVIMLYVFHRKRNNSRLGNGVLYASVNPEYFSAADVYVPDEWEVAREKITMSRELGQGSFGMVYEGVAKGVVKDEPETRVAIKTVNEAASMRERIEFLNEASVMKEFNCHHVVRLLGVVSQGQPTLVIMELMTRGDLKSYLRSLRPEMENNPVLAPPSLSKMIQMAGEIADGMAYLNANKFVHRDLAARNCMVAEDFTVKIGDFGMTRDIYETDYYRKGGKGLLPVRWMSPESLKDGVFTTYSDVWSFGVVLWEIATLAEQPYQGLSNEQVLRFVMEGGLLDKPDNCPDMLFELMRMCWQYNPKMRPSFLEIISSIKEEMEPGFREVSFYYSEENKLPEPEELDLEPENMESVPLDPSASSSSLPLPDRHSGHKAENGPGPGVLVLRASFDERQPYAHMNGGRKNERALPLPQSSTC
Outline: as §1

[13] = target: MERTK (Homo sapiens, UniProt Q12866)
Outline: as §1

[14] = target: NEK3 (Homo sapiens, UniProt P51956)
Outline: as §1

[15] = target: PAK4 (Homo sapiens, UniProt O96013)
Chain of PAK4 (O96013 whole entry): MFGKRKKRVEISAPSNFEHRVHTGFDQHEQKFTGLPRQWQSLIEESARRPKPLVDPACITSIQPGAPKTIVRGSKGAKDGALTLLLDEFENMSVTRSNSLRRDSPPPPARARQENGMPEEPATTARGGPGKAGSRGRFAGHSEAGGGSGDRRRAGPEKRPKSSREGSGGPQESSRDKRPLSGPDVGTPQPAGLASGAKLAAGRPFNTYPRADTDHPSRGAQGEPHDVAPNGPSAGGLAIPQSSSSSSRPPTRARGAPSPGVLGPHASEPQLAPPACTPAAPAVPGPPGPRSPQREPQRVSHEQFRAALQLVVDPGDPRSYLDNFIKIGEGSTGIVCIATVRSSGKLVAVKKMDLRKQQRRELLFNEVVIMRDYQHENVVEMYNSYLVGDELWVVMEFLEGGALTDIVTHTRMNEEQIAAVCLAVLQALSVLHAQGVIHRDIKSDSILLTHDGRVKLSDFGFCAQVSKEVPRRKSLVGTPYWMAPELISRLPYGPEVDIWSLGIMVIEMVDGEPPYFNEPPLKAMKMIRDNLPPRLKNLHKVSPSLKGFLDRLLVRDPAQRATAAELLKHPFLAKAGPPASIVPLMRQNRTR
Outline: as §1

[16] = target: PIK3CA(Q546K) (Homo sapiens, UniProt P42336, Q546K)
Outline: as §1

[17] = target: PIK3CD (Homo sapiens, UniProt O00329)
Outline: as §1

[18] = target: PIK3CG (Homo sapiens, UniProt P48736)
Chain of PIK3CG (P48736 whole entry): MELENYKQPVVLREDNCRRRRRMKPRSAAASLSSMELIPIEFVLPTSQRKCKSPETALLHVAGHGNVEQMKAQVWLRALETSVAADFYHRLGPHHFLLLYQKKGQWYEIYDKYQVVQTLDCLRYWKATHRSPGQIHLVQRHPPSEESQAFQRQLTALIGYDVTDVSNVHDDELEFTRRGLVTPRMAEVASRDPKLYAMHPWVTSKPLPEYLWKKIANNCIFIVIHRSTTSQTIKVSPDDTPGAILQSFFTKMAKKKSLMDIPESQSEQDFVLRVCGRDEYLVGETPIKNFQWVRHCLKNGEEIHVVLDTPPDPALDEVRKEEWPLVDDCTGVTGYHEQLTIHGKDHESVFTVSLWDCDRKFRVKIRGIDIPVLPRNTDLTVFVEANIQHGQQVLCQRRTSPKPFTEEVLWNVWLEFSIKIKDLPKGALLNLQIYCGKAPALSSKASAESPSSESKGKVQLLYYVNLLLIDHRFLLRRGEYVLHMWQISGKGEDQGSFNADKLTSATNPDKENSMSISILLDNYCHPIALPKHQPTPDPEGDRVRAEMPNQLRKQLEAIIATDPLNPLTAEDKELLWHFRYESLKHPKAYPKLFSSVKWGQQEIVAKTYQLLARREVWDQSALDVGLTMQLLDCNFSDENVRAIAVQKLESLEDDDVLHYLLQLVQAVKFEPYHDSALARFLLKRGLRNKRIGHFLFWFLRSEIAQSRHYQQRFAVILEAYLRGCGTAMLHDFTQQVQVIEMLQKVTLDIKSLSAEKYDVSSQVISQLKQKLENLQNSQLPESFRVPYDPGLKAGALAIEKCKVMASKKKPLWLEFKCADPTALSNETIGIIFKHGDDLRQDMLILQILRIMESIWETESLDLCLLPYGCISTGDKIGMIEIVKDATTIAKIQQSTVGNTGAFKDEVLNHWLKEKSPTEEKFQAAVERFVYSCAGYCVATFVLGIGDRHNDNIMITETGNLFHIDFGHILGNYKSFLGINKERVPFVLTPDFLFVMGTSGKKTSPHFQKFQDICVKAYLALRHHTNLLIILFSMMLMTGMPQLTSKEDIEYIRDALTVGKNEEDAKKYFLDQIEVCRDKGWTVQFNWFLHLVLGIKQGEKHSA
Outline: as §1

[19] = target: PIP5K1A (Homo sapiens, UniProt Q99755)
Outline: as §1

[20] = target: PLK1 (Homo sapiens, UniProt P53350)
Outline: as §1

[21] = target: PRKCH (Homo sapiens, UniProt P24723)
Outline: as §1

[22] = target: ROCK1 (Homo sapiens, UniProt Q13464)
Chain of ROCK1 (Q13464 whole entry): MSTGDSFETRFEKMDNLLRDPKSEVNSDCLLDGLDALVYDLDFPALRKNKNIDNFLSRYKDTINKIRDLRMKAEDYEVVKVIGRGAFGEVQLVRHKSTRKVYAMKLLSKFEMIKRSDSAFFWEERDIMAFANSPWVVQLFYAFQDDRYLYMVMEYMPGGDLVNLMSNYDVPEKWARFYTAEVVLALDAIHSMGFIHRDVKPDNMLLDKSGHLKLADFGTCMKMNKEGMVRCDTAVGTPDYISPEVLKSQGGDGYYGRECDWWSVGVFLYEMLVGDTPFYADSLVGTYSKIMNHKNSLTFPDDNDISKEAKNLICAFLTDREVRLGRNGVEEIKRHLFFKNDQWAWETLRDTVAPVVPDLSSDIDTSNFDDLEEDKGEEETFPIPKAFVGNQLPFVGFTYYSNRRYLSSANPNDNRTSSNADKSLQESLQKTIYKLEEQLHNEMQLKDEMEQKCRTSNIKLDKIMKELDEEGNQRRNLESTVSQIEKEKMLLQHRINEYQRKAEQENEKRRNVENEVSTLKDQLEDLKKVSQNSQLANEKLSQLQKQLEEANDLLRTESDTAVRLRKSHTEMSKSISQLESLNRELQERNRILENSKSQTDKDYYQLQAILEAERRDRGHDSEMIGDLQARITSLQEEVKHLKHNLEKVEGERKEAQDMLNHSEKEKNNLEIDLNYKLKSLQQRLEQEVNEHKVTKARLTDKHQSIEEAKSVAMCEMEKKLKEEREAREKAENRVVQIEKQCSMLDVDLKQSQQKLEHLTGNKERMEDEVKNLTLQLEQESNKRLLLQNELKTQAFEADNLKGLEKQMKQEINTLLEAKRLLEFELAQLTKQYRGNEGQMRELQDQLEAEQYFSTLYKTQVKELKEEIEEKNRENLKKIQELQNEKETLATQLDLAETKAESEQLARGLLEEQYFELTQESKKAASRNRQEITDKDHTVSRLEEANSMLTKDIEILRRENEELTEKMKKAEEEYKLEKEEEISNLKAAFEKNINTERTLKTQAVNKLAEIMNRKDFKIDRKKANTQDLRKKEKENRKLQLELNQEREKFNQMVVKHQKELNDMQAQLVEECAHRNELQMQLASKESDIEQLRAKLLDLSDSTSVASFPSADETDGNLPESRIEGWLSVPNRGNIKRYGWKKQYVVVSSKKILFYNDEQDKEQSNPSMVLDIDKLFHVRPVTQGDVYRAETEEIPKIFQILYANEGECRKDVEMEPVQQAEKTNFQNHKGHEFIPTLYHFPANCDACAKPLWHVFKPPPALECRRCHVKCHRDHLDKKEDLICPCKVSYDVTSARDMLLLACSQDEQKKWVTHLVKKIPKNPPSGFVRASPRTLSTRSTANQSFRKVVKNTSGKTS
Outline: as §1

Cc1ncccc1Oc1sc(C(N)=O)c2c1-c1c(cnn1C)CC2 [T-474, 1-methyl-8-((2-methylpyridin-3-yl)oxy)-4,5-dihydro-1H-thieno[3,4-g]indazole-6-carboxamide]
remaining binding at 0.3 µM [1]: 87% | remaining binding at 0.3 µM [2]: 100% | remaining binding at 0.3 µM [3]: 1.1% | remaining binding at 0.3 µM [4]: 98% | remaining binding at 0.3 µM [5]: 86% | remaining binding at 0.3 µM [6]: 69% | remaining binding at 0.3 µM [7]: 87% | remaining binding at 0.3 µM [8]: 66% | remaining binding at 0.3 µM [9]: 94% | remaining binding at 0.3 µM [10]: 82% | remaining binding at 0.3 µM [11]: 83% | remaining binding at 0.3 µM [12]: 98% | remaining binding at 0.3 µM [13]: 100% | remaining binding at 0.3 µM [14]: 100% | remaining binding at 0.3 µM [15]: 100% | remaining binding at 0.3 µM [16]: 100% | remaining binding at 0.3 µM [17]: 88% | remaining binding at 0.3 µM [18]: 88% | remaining binding at 0.3 µM [19]: 99% | remaining binding at 0.3 µM [20]: 100% | remaining binding at 0.3 µM [21]: 100% | remaining binding at 0.3 µM [22]: 100%

O=C(/C=C/c1cnccc1-c1ccc(F)cc1)Nc1ccc(CCc2nnco2)cc1 [T-418, (2E)-3-(4-(4-fluorophenyl)pyridin-3-yl)-N-(4-(2-(1,3,4-oxadiazol-2-yl)ethyl)phenyl)acrylamide]
remaining binding at 0.3 µM ([1]; sheet T-418): 89% | remaining binding at 0.3 µM ([2]; sheet T-418): 100% | remaining binding at 0.3 µM ([3]; sheet T-418): 6.4% | remaining binding at 0.3 µM ([4]; sheet T-418): 92% | remaining binding at 0.3 µM ([5]; sheet T-418): 86% | remaining binding at 0.3 µM ([6]; sheet T-418): 52% | remaining binding at 0.3 µM ([7]; sheet T-418): 71% | remaining binding at 0.3 µM ([8]; sheet T-418): 100% | remaining binding at 0.3 µM ([9]; sheet T-418): 96% | remaining binding at 0.3 µM ([10]; sheet T-418): 86% | remaining binding at 0.3 µM ([11]; sheet T-418): 84% | remaining binding at 0.3 µM ([12]; sheet T-418): 87% | remaining binding at 0.3 µM ([13]; sheet T-418): 100% | remaining binding at 0.3 µM ([14]; sheet T-418): 100% | remaining binding at 0.3 µM ([15]; sheet T-418): 99% | remaining binding at 0.3 µM ([16]; sheet T-418): 100% | remaining binding at 0.3 µM ([17]; sheet T-418): 99% | remaining binding at 0.3 µM ([18]; sheet T-418): 100% | remaining binding at 0.3 µM ([19]; sheet T-418): 94% | remaining binding at 0.3 µM ([20]; sheet T-418): 100% | remaining binding at 0.3 µM ([21]; sheet T-418): 88% | remaining binding at 0.3 µM ([22]; sheet T-418): 81%
